Reference: US5447944A, “Carbamoyl-2-pyrrolidinone compounds” (Taiho Pharmaceutical Company, Limited, priority 1988, dated 1995)
Where two headings read alike, the source gives them in different places.

Experiments:
[1] = Antianoxic activity test (Test Example 2): effect on the survival time under low-oxygen load at atmospheric pressure; assay type: in vivo, mice (ddY, five-week-old males); conditions: read-out: Antianoxia activity [increase ratio (%) of the survival time]
From the text: Antianoxic activity test (effect on the survival time under low-oxygen load at atmospheric pressure)
Groups of 10 mice (ddY, five-week-old males) were used for the experiment with reference to Japan Journal of Pharmacology, 81, 421~429 (1983), same, 86, 323~328 (1985) and same, 89, 355~363 (1987). The test compound was orally given to the mouse as dissolved or suspended in 0.5% solution of sodium carboxymethyl cellulose, the mouse was placed into a transparent plastics container (13×13×16 cm) having a vent, and a gas mixture of 96% nitrogen and 4% oxygen was passed through the container at a rate of 5 liters/min.

[2] = Reversal activity of amnesia (Test Example 1): scopolamine-induced amnesia, step-through passive avoidance, antiamnesia effect; assay type: in vivo, rats (Wistar, males); conditions: read-out: Antiamnesia effect [increase ratio (%) of the step-through latency]; for change in vivo at 10 mg/kg: 10 mg/kg oral
Description: Reversal activity of amnesia
Groups of 6 to 16 rats (Wistar, males, weighing 170 to 240 g) were used for the experiment.
Scopolamine was used as dissolved in physiological saline, and the test compound as dissolved or suspended in 0.5% solution of sodium carboxymethyl cellulose.
Scopolamine was subcutaneously given at a dose of 0.5 mg/kg 30 minutes before aquisition trials. The test compound was orally given immediately after the aquisition trials.
The rat was subjected to habituation trials about 1 hour before aquisition trials. The habituation was accomplished by placing the rat into the light compartment, opening the door 5 seconds thereafter, closing the door when the four legs completely entered the dark compartment, leaving the rat in the dark compartment for 10 seconds and thereafter taking out the rat. The acquisition trial was accomplished in the same manner as the habituation 1 hour thereafter except that simultaneously when the door was closed upon the movement of the rat into the dark compartment, an unescapable foot shock of 4.5 mA was given to the rat by the floor grit for 1 second.
A retention test was conducted 24 hours after the aquisition trials to measure the step-through latency during which the rat placed into the light compartment remained therein before moving into the dark compartment, i.e., the duration of a passive avoidance reaction.

[3] = Acute toxicity test (Test Example 3); conditions: mouse, in vivo
Description: Mice (ddY, five-week-old males) were used in groups of 4 to 5 mice each. The test compound was dissolved or suspended in 0.5% solution of sodium carboxymethyl cellulose and administered orally. […] Many of the test compounds produced symptoms of sedation or mascular relaxation for 30 minutes to 6 hours, followed by gradual recovery. The original state was restored two days later.

[4] = 30 mg/kg oral, mouse, 96% nitrogen and 4% oxygen, vs control group
[5] = 100 mg/kg oral, mouse, 96% nitrogen and 4% oxygen, vs control group
[6] = 300 mg/kg oral, mouse, 96% nitrogen and 4% oxygen, vs control group
[7] = 30 mg/kg oral, rat, retention test 24 hours after acquisition, scopolamine 0.5 mg/kg s.c., vs control group
[8] = 100 mg/kg oral, rat, retention test 24 hours after acquisition, scopolamine 0.5 mg/kg s.c., vs control group
[9] = 300 mg/kg oral, rat, retention test 24 hours after acquisition, scopolamine 0.5 mg/kg s.c., vs control group
[10] = rat, retention test 24 hours after acquisition, scopolamine 0.5 mg/kg s.c., vs control group

| Compound | ILS at 30 mg/kg [1, 4] [%] | ILS at 100 mg/kg [1, 5] [%] | ILS at 300 mg/kg [1, 6] [%] | change in vivo at 30 mg/kg [2, 7] [%] | change in vivo at 100 mg/kg [2, 8] [%] | change in vivo at 300 mg/kg [2, 9] [%] | LD50 at 72 h ([3]; po) [mg/kg] | LD50 at 72 h ([3]; oral, observed for 3 days) [mg/kg] | change in vivo at 10 mg/kg [2, 10] [%] | ILS at 30 mg/kg ([1]; Mus musculus, po) [%] | ILS at 100 mg/kg ([1]; Mus musculus, po) [%] | ILS at 300 mg/kg ([1]; Mus musculus, po) [%] | change in vivo at 30 mg/kg ([2]; Rattus norvegicus, po, 24 h) [%] | change in vivo at 100 mg/kg ([2]; Rattus norvegicus, po, 24 h) [%] | change in vivo at 300 mg/kg ([2]; Rattus norvegicus, po, 24 h) [%] |
| --- | --- | --- | --- | --- | --- | --- | --- | --- | --- | --- | --- | --- | --- | --- | --- |
| COc1cc(NC(=O)N2CCCC2=O)cc(OC)c1OC [Compound 7] | 4 | 11 | 66 | -10 | 209 | 345 | 5000 |  |  |  |  |  |  |  |  |
| CC1CCN(C(=O)Nc2ccccc2)C1=O (stereo not drawn) [Compound 13] | 9 | 87 | 37 |  |  |  | > 2000 |  |  |  |  |  |  |  |  |
| O=C1CC(O)CN1C(=O)Nc1ccccc1 (stereo not drawn) [Compound 11, 1-phenylcarbamoyl-4-hydroxy-2-pyrrolidinone] | 11 | 62 | 96 | 346 | 198 | 518 |  |  |  |  |  |  |  |  |  |
| O=C1CCC(CO)N1C(=O)Nc1ccccc1 (stereo not drawn) [Compound 16, 5-hydroxymethyl-1-phenylcarbamoyl-2-pyrrolidinone] | 10 | 36 | 89 | 135 | 103 | 50 |  | 5000 |  |  |  |  |  |  |  |
| COc1ccc(NC(=O)N2CCCC2=O)cc1 [Compound 2, 1-(4-methoxyphenylcarbamoyl)-2-pyrrolidinone] | 11 | 5 | 27 | 557 | 623 | 507 |  | > 5000 | 346 |  |  |  |  |  |  |
| O=C1CCCN1C(=O)Nc1ccccc1 [Compound 1] | -15 | 15 | 39 | 623 | 367 | 230 | > 5000 |  | 360 |  |  |  |  |  |  |
| COc1ccc(C(=O)N2CCCC2=O)cc1 [Aniracetam, reference compound] |  |  |  |  |  |  |  |  |  | 19 | 26 | 23 | 230 | 288 | 42 |
| O=C1CCCN1C(=O)Nc1nccs1 [Compound 10] | -4 | -1 | 35 | 166 | 144 | 475 | 5000 |  |  |  |  |  |  |  |  |
| O=C1CCCN1C(=O)Nc1cccc2c1CCCC2 [Compound 8] | 30 | 25 | 20 | 531 | 490 | 414 | > 5000 |  | 125 |  |  |  |  |  |  |
| COc1ccc(NC(=O)N2CC(O)CC2=O)cc1 (stereo not drawn) [Compound 12] | 5 | 7 | 63 |  |  |  |  |  |  |  |  |  |  |  |  |
| O=C1CCCN1C(=O)Nc1ccncc1 [Compound 9] | 13 | 12 | 16 | 245 | 157 | 41 |  | < 5000 | -7 |  |  |  |  |  |  |
| O=C1CCCN1C(=O)Nc1ccc(Cl)cc1 [Compound 3] | 11 | 15 | 46 |  |  |  | > 2000 |  |  |  |  |  |  |  |  |
| COc1ccc(NC(=O)N2CCC(C)C2=O)cc1 (stereo not drawn) [Compound 14, 3-methyl-1-(4-methoxyphenylcarbamoyl)-2-pyrrolidinone] | 9 | 26 | 34 | 75 | 6 | 1 |  | > 5000 |  |  |  |  |  |  |  |
| CN(C)c1ccc(NC(=O)N2CCCC2=O)cc1 [Compound 5] | -4 | 22 | 9 | 598 | 213 | 79 |  | < 5000 | 119 |  |  |  |  |  |  |
| COc1ccc(NC(=O)N2CCCC2=O)cc1OC [Compound 6] | 0 | -4 | 14 | 138 | 568 | 596 | > 5000 |  |  |  |  |  |  |  |  |
| COc1ccc(NC(=O)N2C(=O)CCC2C)cc1 (stereo not drawn) [Compound 15] | -3 | -1 | 11 | 25 | 148 | 672 | > 5000 |  |  |  |  |  |  |  |  |
